According to PMC10510381, “Alkyne as a Latent Warhead to Covalently Target SARS-CoV-2 Main Protease” (Journal of Medicinal Chemistry, 2023):
Values joined by “and” are separate entries in the source; they are usually repeats but may differ in a detail not shown here. Equal values may be shown once. “Also recorded” adds a separate entry of the source. Read-outs that look alike come from different tables or passages of the source. Residues, ends and D or L forms follow the SMILES beside them. *: point of attachment. Cbz = O=C(OCc1ccccc1)*

How the values were obtained:
HEK293T proteome = assay: Proteomic labeling of parental HEK293T cells (in-gel fluorescence); format: cell-based, human
HeLa proteome = format: cell-based, human
recombinant M^pro = recombinant M^pro (Severe acute respiratory syndrome coronavirus 2, UniProt P0DTD1); format: binding
[1] = molecular target: M^pro expressed in HEK293T cells (Severe acute respiratory syndrome coronavirus 2, UniProt P0DTD1); format: cell-based; settings: HEK293T transiently transfected with M^pro
SARS-CoV-2 M^pro = SARS-CoV-2 M^pro (Severe acute respiratory syndrome coronavirus 2, UniProt P0DTD1); assay: biochemical; settings: for inhibition against M^pro: up to 80 μM
SARS-CoV-2 = format: cell-based
[2] = 15-min treatment of M^pro (0.5 μM), FRET substrate 20 μM, both duplicate values given, read-out: IC50
[3] = 15-min pre-incubation, read-out: IC50 (average of duplicate)

Structure (SMILES): C#CC[C@H](NC(=O)C(F)(F)F)C(=O)N1C[C@H]2[C@@H]([C@H]1C(=O)N[C@H](C#C)C[C@@H]1CCNC1=O)C2(C)C [Alk-4d, O=C1NCC[C@H]1C[C@@H](C#C)NC([C@H]2N(C([C@@H](NC(C(F)(F)F)=O)CC#C)=O)C[C@H]3[C@@H]2C3(C)C)=O]
- proteome labeling, HEK293T cells (HEK293T proteome; 1 hour, up to 30 μM): little labeling; also recorded: did not label any proteins
- proteome labeling, HEK293T cells (HEK293T proteome; 5 h, all tested concentrations): little proteome labeling
- proteome labeling, HeLa cells (HeLa proteome): little labeling
- probe concentration for efficient labeling of M^pro (recombinant M^pro; 1 h treatment): above 1 μM
- probe concentration reaching saturation of M^pro labeling (recombinant M^pro; 1 h treatment): 3 µM
- labeling of M^pro in live cells [1]: dose-dependent labeling

Structure (SMILES): C#CC[C@H](NC(=O)C(F)(F)F)C(=O)N1C[C@H]2[C@@H]([C@H]1C(=O)N[C@H](C#CC(F)(F)F)C[C@@H]1CCNC1=O)C2(C)C [Alk-4i, O=C1NCC[C@H]1C[C@@H](C#CC(F)(F)F)NC([C@H]2N(C([C@@H](NC(C(F)(F)F)=O)CC#C)=O)C[C@H]3[C@@H]2C3(C)C)=O]
- proteome labeling, HEK293T cells (HEK293T proteome; 5 h, 10 μM): significant labeling
- lowest concentration tested, giving intense labeling of M^pro (recombinant M^pro): 300 nM
- incubation time to label M^pro near saturation (recombinant M^pro; time-course): 5 min

Structure (SMILES): CC(C)C[C@H](NC(=O)OCc1ccccc1)C(=O)N[C@H](/C=C/C(=O)OCc1ccccc1)CCC(N)=O [Compound 1a, O=C(N[C@@H](CCC(N)=O)/C=C/C(OCC1=CC=CC=C1)=O)[C@H](CC(C)C)NC(OCC2=CC=CC=C2)=O]
- IC50 (SARS-CoV-2 M^pro; [2]): 2.5 µM and 3.9 µM

Structure (SMILES): CC(C)C[C@H](NC(=O)OCc1ccccc1)C(=O)N[C@H](/C=C/S(C)(=O)=O)CCC(N)=O [Compound 1b, O=C(N[C@@H](CCC(N)=O)/C=C/S(C)(=O)=O)[C@H](CC(C)C)NC(OCC1=CC=CC=C1)=O]
- IC50 (SARS-CoV-2 M^pro; [2]): 12 µM and 18 µM

Structure (SMILES): CNS(=O)(=O)/C=C/[C@H](CCC(N)=O)NC(=O)[C@H](CC(C)C)NC(=O)OCc1ccccc1 [Compound 1c, O=C(N[C@@H](CCC(N)=O)/C=C/S(=O)(NC)=O)[C@H](CC(C)C)NC(OCC1=CC=CC=C1)=O]
- IC50 (SARS-CoV-2 M^pro; [3]): 47 µM
- IC50 (SARS-CoV-2 M^pro; [2]): 39 µM and 55 µM

Structure (SMILES): C#C[C@H](CCC(N)=O)NC(=O)[C@H](CC(C)C)NC(=O)OCc1ccccc1 [Compound 1d, O=C(N[C@@H](CCC(N)=O)C#C)[C@H](CC(C)C)NC(OCC1=CC=CC=C1)=O]
- IC50 (SARS-CoV-2 M^pro; [2]): 35 µM and 60 µM

Structure (SMILES): CC(C)C[C@H](NC(=O)OCc1ccccc1)C(=O)N[C@H](C=O)CCC(N)=O [Compound 1e, O=C(N[C@@H](CCC(N)=O)C([H])=O)[C@H](CC(C)C)NC(OCC1=CC=CC=C1)=O] (Cbz-Leu-Gln-aldehyde)
- IC50 (SARS-CoV-2 M^pro; [2]): > 80 µM
- inhibition against M^pro (SARS-CoV-2 M^pro): failed to cause significant inhibition

Structure (SMILES): CC(C)C[C@H](NC(=O)OCc1ccccc1)C(=O)N[C@@H](CCC(N)=O)C(=O)C(=O)NCc1ccccc1 [Compound 1f, O=C(N[C@@H](CCC(N)=O)C(C(NCC1=CC=CC=C1)=O)=O)[C@H](CC(C)C)NC(OCC2=CC=CC=C2)=O]
- IC50 (SARS-CoV-2 M^pro; [2]): > 80 µM
- inhibition against M^pro (SARS-CoV-2 M^pro): failed to cause significant inhibition

Structure (SMILES): CC(C)C[C@H](NC(=O)OCc1ccccc1)C(=O)N[C@H](C#N)CCC(N)=O [Compound 1g, O=C(N[C@@H](CCC(N)=O)C#N)[C@H](CC(C)C)NC(OCC1=CC=CC=C1)=O]
- IC50 (SARS-CoV-2 M^pro; [2]): > 80 µM
- inhibition against M^pro (SARS-CoV-2 M^pro): failed to cause significant inhibition

Structure (SMILES): C#C[C@H](CCC(N)=O)NC(=O)[C@H](CC(C)C)NC(=O)c1cc2c(OC)cccc2[nH]1 [Compound 2d, O=C(N[C@@H](CCC(N)=O)C#C)[C@H](CC(C)C)NC(C1=CC2=C(C=CC=C2OC)N1)=O]
- IC50 (SARS-CoV-2 M^pro; 15-min pre-incubation, both duplicate values given, read-out: IC50 uM (15-min pre-incubation)): 22 µM
- IC50 (SARS-CoV-2 M^pro; [2]): 22 µM

Structure (SMILES): COc1cccc2[nH]c(C(=O)N[C@@H](CC(C)C)C(=O)N[C@H](C#N)CCC(N)=O)cc12 [Compound 2g, O=C(N[C@@H](CCC(N)=O)C#N)[C@H](CC(C)C)NC(C1=CC2=C(C=CC=C2OC)N1)=O]
- IC50 (SARS-CoV-2 M^pro; [2]): 29 µM and 30 µM

Structure (SMILES): C#C[C@H](C[C@@H]1CCNC1=O)NC(=O)[C@H](CC(C)C)NC(=O)c1cc2c(OC)cccc2[nH]1 [Compound 3d, O=C(N[C@@H](C[C@H]1C(NCC1)=O)C#C)[C@H](CC(C)C)NC(C2=CC3=C(C=CC=C3OC)N2)=O]
- IC50 (SARS-CoV-2 M^pro; [3]): ~7 µM
- IC50 (SARS-CoV-2 M^pro; [2]): 10 µM and 4.4 µM

Structure (SMILES): CC(C)(C)[C@H](NC(=O)C(F)(F)F)C(=O)N1C[C@H]2[C@@H]([C@H]1C(=O)N[C@H](C=O)C[C@@H]1CCNC1=O)C2(C)C [Compound 4e, O=C1NCC[C@H]1C[C@@H](C([H])=O)NC([C@H]2N(C([C@@H](NC(C(F)(F)F)=O)C(C)(C)C)=O)C[C@H]3[C@@H]2C3(C)C)=O]
- IC50 (SARS-CoV-2 M^pro; [2]): 0.29 µM and 0.3 µM

Structure (SMILES): CC(C)(C)[C@H](NC(=O)C(F)(F)F)C(=O)N1C[C@H]2[C@@H]([C@H]1C(=O)N[C@H](C#N)C[C@@H]1CCNC1=O)C2(C)C [Compound 4g, nirmatrelvir, reference compound]
- cytotoxicity (Hela-ACE2 cells; up to the highest concentration tested, 10 μM, 20 h): no notable cytotoxicity

Structure (SMILES): CC(C)(C)[C@H](NC(=O)C(F)(F)F)C(=O)N1C[C@H]2[C@@H]([C@H]1C(=O)N[C@@H](C[C@@H]1CCNC1=O)C(N)=O)C2(C)C [Compound 4h, O=C1NCC[C@H]1C[C@@H](C(N)=O)NC([C@H]2N(C([C@@H](NC(C(F)(F)F)=O)C(C)(C)C)=O)C[C@H]3[C@@H]2C3(C)C)=O]
- IC50 (SARS-CoV-2 M^pro; [2]): > 80 µM

Structure (SMILES): CC(C)(C)[C@H](NC(=O)C(F)(F)F)C(=O)N1C[C@H]2[C@@H]([C@H]1C(=O)N[C@H](C#CC(F)(F)F)C[C@@H]1CCNC1=O)C2(C)C [Compound 4i, O=C1NCC[C@H]1C[C@@H](C#CC(F)(F)F)NC([C@H]2N(C([C@@H](NC(C(F)(F)F)=O)C(C)(C)C)=O)C[C@H]3[C@@H]2C3(C)C)=O]
- antiviral activity (SARS-CoV-2): strong, dose-dependent antiviral activity
- anti-COVID activity (SARS-CoV-2; sub-micromolar concentrations, HeLa-ACE2, 24 h): significant anti-COVID activity
- concentration sufficient to abolish labeling of M^pro (recombinant M^pro; competition with 10 μM Alk-4d): 1 µM
- cytotoxicity (Hela-ACE2 cells): no notable cytotoxicity
